From US20220009914A1, “Analogs of Nitrofuran Antibiotics to Combat Resistance” (The Trustees of Indiana University, priority 2020, published 2022)
Where two headings read alike, the source gives them in different places.

Columns and labels:
[1] = system: FHs 74 Int small intestine cells; experiment: in vitro; settings: for CC50: human, 48 h
Description: (§1) Evaluating compound effects on the viability of human colon and small intestine cells. […] Evaluating compound effects on the viability of human colon and small intestine cells. Evaluation of compound cytotoxicities to FHC colon and FHs 74 Int small intestine cells were performed using Alamar Blue-based viability assays. […] FHs 74 Int cells were maintained in Hybri-care medium (ATCC 46-X) supplemented with 30 ng/mL recombinant epidermal growth factor (EGF) and 10% FBS (Midwest Scientific, USDAFBS).

[2] = system: FHC colon cells; experiment: in vitro; settings: for CC50: human, 48 h
Description: as §1

[3] = system: Enterobacter cloacae strain CDC 442-68 (ATCC #13047); experiment: bacterial proliferation assay, E. cloacae; format: cell-based; settings: ATCC13047, read-out: Bacterial Proliferation EC50 E. cloacae
Description: (§2) All compounds were evaluated for inhibiting the proliferation of E. coli and each of the ESKAPE bacteria. Results presented represent the averages of EC50 values obtained from at least four replicates. Evaluating compounds for inhibition of bacterial cell proliferation.
(§3) Growth Media: E. coli were grown with LB medium and all ESKAPE bacteria were grown in Brain Heart Infusion (BHI) medium (Becton, Dickinson and Company), with all liquid cultures supplemented with 25 mg/L Ca^2+ and 12.5 mg/L Mg^2+ to mimic physiological free concentrations of these cations. A 10 mg/mL Ca^2+ stock solution was prepared by dissolving 1.84 g of CaCl2.2H2O in 50 mL of deionized water, and a 10 mg/mL Mg^2+ stock solution was prepared by dissolving 4.18 g of MgCl2.6H2O in 50 mL deionized water—filter sterilized using 0.2 μm cellulose-acetate filters. 2.5 mL of the sterile 10 mg/mL Ca^2+ stock and 1.25 mL of the sterile 10 mg/mL Mg^2+ stock solutions were added per 1 L of autoclaved LB or BHI media to obtain 25 mg/L Ca^2+ and 12.5 mg/L Mg^2+ ions, respectively.
General Assay Protocol: Stock bacterial cultures were streaked onto LB or BHI agar plates and grown overnight at 37° C. Fresh aliquots of cation supplemented media were inoculated with single bacterial colonies and the cultures were grown overnight at 37° C. with shaking (240 rpm). The following morning, cultures were diluted 10-fold into fresh media and grown at 37° C. until bacteria had reached mid-log phase growth (OD600˜0.4-0.6). The cultures were then diluted into fresh media to achieve final OD600 readings of 0.017. Aliquots of these diluted cultures (30 μL) were added to clear, flat-bottom 384-well polystyrene plates that were previously stamped with 0.5 μL of test compounds in 20 μL of media (yielding initial OD600=0.01 bacterial cultures). All compounds were tested in dose-response with concentration ranges during the proliferation assays from 100 μM to 46 nM (3-fold dilution series). A second set of baseline control plates were prepared analogously, but without any bacteria added, to correct for possible compound absorbance and/or precipitation. […] Plates were then read at 600 nm using a Molecular Devices SpectraMax Plus384 microplate reader. […] Results presented represent the averages of EC50 values obtained from at least four replicates.
Evaluating analogs for inhibiting the growth of E. coli and the ESKAPE bacteria. Analogs were initially tested for antibacterial efficacy against representative strains of antibiotic-sensitive E. coli and the ESKAPE bacteria. To determine compound efficacy, bacterial proliferation assays were carried out in liquid media culture supplemented with physiological concentrations of free calcium and magnesium cations. For these assays, bacterial cultures (OD600=0.01) were exposed to test compounds in 8-point, 3-fold dilution series (100 μM to 46 nM concentration range), in 384-well plates. After addition of compounds to cultures, the plates were sealed with Breathe-Easy gas permeable membranes and allowed to grow to mid-log phase (OD600˜0.4-0.6), whereupon final OD600 readings were taken to assess for bacterial growth and inhibition.

[4] = target: T1, native MDH (Sus scrofa, UniProt P00346); experiment: native MDH activity counter-screen in the presence of E. coli NfsB nitroreductase; format: biochemical, pig
T1 sequence (P00346 25-338): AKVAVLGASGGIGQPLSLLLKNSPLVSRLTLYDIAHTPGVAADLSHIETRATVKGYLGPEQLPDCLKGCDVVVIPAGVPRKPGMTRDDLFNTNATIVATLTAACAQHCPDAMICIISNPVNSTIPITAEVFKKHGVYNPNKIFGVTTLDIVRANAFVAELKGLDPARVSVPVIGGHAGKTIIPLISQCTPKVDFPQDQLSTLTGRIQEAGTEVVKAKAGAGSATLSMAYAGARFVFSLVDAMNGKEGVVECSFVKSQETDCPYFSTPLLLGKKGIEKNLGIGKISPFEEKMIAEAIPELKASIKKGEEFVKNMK
Description: Evaluating compounds for inhibition in the GroEL/ES-mediated dMDH refolding assay and native MDH activity counter-screen in the presence of E. coli NfsB nitroreductase. These assays were performed nearly identically to those mentioned above, but with a couple distinct modifications. […] The remainder of the assay was conducted as in our standard protocol where no NfsB nitroreductase was present. […] Results presented represent the averages of IC50 values obtained from at least four replicates in each assay.

[5] = system: E. coli and the ESKAPE bacteria; experiment: bacterial proliferation assays, whole panel (results in words); format: cell-based
Description: as §2, §3
General Assay Protocol: Stock bacterial cultures were streaked onto LB or BHI agar plates and grown overnight at 37° C. Fresh aliquots of cation supplemented media were inoculated with single bacterial colonies and the cultures were grown overnight at 37° C. with shaking (240 rpm). […] The cultures were then diluted into fresh media to achieve final OD600 readings of 0.017. […] A second set of baseline control plates were prepared analogously, but without any bacteria added, to correct for possible compound absorbance and/or precipitation. […] Plates were then read at 600 nm using a Molecular Devices SpectraMax Plus384 microplate reader. […]
Evaluating analogs for inhibiting the growth of E. coli and the ESKAPE bacteria. […] After addition of compounds to cultures, the plates were sealed with Breathe-Easy gas permeable membranes and allowed to grow to mid-log phase (OD600˜0.4-0.6), whereupon final OD600 readings were taken to assess for bacterial growth and inhibition.

[6] = system: NEB 5-alpha E. coli; experiment: microbe, parasite or virus in culture; format: cell-based, Escherichia coli; settings: for resistance of the maximally-resistant strain to its inhibitor after passaging without compound: 4×12 h serial passages without test compounds, then 24 h proliferation assay; for EC50: Escherichia coli, read-out: EC50 plateau after intermediate resistance
Description: Evaluating the ability of E. coli to generate resistance to lead inhibitors. […] NEB 5-alpha E. coli bacteria were streaked onto an LB agar plate and grown overnight at 37° C. […] The overnight cultures were then sub-cultured (10× dilution) into fresh media solutions and grown at 37° C. to mid-log phase, then diluted into fresh media to achieve two separate cultures with final OD600 readings of 0.01. […] Test compounds were evaluated in duplicate with concentration ranges during the resistance assay from 100 μM to 48.8 nM, 2-fold dilution series. […] OD600 readings were taken at the 24 h time point to monitor for bacterial growth. A second baseline control plate was prepared analogously, without any bacteria added, to correct for possible compound absorbance and/or precipitation. For inoculations on subsequent days, bacteria from the wells with the highest test compound concentration where the OD600 was >0.2, were sub-cultured in 5 mL of fresh media at 37° C. until mid-log phase growth was reached. Separate cultures were maintained from this point forward for each of the compound replicates—i.e. 6 cultures continually propagated. The bacteria were then diluted into fresh media to OD600 of 0.01 and the bacteria were propagated again as described above.

[7] = system: nifuroxazide resistant E. coli; format: cell-based, Escherichia coli
[8] = in vitro; settings: human
Description: as §1

[9] = in vitro; settings: human; remark: listed apart in the source
Description: as §1

[10] = with E. coli NfsB nitroreductase, read-out: Native MDH Activity w/NfsB IC50
[11] = E. coli and the ESKAPE pathogens

O=C(N/N=C/c1ccc([N+](=O)[O-])o1)c1ccccc1 [Compound 18, N′-((5-nitrofuran-2-yl)methylene)benzohydrazide]
SI (CC50/EC50) Intestine [1]: 45 | CC50 [1]: 94 µM | SI (CC50/EC50) Colon [2]: >48 | CC50 [2]: > 100 µM | EC50 [3]: > 100 µM

O=Cc1ccc([N+](=O)[O-])o1 [Compound 41, reference compound]
IC50 [4, 10]: > 56 µM | antibacterial efficacy in words [5, 11]: potent inhibitors of nearly all the bacteria (excluding P. aeruginosa) | EC50 [3]: 13 µM

O=C(N/N=C/c1ccc([N+](=O)[O-])o1)c1ccc(O)cc1 [Nifuroxazide, reference compound]
IC50 [4]: > 56 µM | cytotoxicity to human cells in words [1]: low to no cytotoxicity | SI (CC50/EC50) Intestine ([1]; CC50 intestine cells over EC50 E. coli proliferation): 91 | CC50 [1]: 79 µM | SI (CC50/EC50) Colon ([2]; CC50 colon cells over EC50 E. coli proliferation): 70 | CC50 [2]: 61 µM | EC50 [3]: 54 µM | resistance of the maximally-resistant strain to its inhibitor after passaging without compound [6]: still resistant | EC50 [6]: 20 to 40 µM

COc1ccc(C(=O)N/N=C/c2ccc([N+](=O)[O-])o2)cc1 [Compound 20, 4-methoxy-N′-((5-nitrofuran-2-yl)methylene)benzohydrazide]
SI (CC50/EC50) Intestine [1]: 40 | cytotoxicity to human cells in words [1]: low to no cytotoxicity | CC50 [1]: 75 µM | SI (CC50/EC50) Colon [2]: >53 | CC50 [2]: > 100 µM | EC50 [3]: > 100 µM

O=C(N/N=C/c1ccc([N+](=O)[O-])o1)c1cccs1 [Compound 16, N′-((5-nitrofuran-2-yl)methylene)thiophene-2-carbohydrazide]
SI (CC50/EC50) Intestine [1]: 168 | cytotoxicity to human cells in words [1]: low to no cytotoxicity | CC50 [1]: 71 µM | SI (CC50/EC50) Colon [2]: 198 | CC50 [2]: 83 µM | EC50 [3]: 40 µM

O=C(N/N=C/c1ccc([N+](=O)[O-])o1)c1ccc(Cl)s1 [Compound 17, 5-chloro-N′-((5-nitrofuran-2-yl)methylene)thiophene-2-carbohydrazide]
SI (CC50/EC50) Intestine [1]: 190 | cytotoxicity to human cells in words [1]: low to no cytotoxicity | CC50 [1]: 85 µM | SI (CC50/EC50) Colon [2]: 119 | CC50 [2]: 53 µM | response of nifuroxazide-resistant strains to the other inhibitor [7]: cross-resistant | EC50 [3]: 49 µM | resistance of the maximally-resistant strain to its inhibitor after passaging without compound [6]: still resistant | EC50 [6]: 20 to 40 µM

CN(C)c1ccc(C(=O)N/N=C/c2ccc([N+](=O)[O-])o2)cc1 [Compound 21, 4-(dimethylamino)-N′-((5-nitrofuran-2-yl)methylene)benzohydrazide]
SI (CC50/EC50) Intestine [1]: 9.3 | CC50 [1]: 93 µM | antibacterial efficacy in words ([5]; Gram-positive E. faecium and S. aureus): less effective (or inactive) | SI (CC50/EC50) Colon [2]: >10 | CC50 [2]: > 100 µM | EC50 [3]: > 100 µM

O=C1CN(/N=C/c2ccc(O)c3ncccc23)C(=O)N1 [Compound 2, 1-(((8-hydroxyquinolin-5-yl)methylene)amino)imidazolidine-2,4-dione]
IC50 [4, 10]: > 56 µM | CC50 at 48 h [8]: > 100 µM | CC50 at 48 h [9]: > 100 µM | EC50 [3]: > 100 µM

O=C(N/N=C/c1ccc(O)c2ccccc12)c1ccccc1 [Compound 30, N′-((4-hydroxynaphthalen-1-yl)methylene)benzohydrazide]
IC50 [4, 10]: > 56 µM | CC50 at 48 h [8]: > 100 µM | CC50 at 48 h [9]: > 100 µM | EC50 [3]: > 100 µM

O=C(N/N=C/c1cccc2ncccc12)c1ccccc1 [Compound 32, N′-(quinolin-5-ylmethylene)benzohydrazide]
IC50 [4, 10]: > 56 µM | CC50 at 48 h [8]: > 100 µM | CC50 at 48 h [9]: > 100 µM | EC50 [3]: > 100 µM

COc1ccc(C(=O)N/N=C/c2ccccc2)cc1 [Compound 37, N′-benzylidene-4-methoxybenzohydrazide]
IC50 [4, 10]: > 56 µM | CC50 at 48 h [8]: > 100 µM | CC50 at 48 h [9]: > 100 µM | EC50 [3]: > 100 µM

COc1ccc(C(=O)N/N=C/c2ccc(O)c3ccccc23)cc1 [Compound 29, N′-((4-hydroxynaphthalen-1-yl)methylene)-4-methoxybenzohydrazide]
IC50 [4, 10]: > 56 µM | CC50 at 48 h [8]: > 100 µM | CC50 at 48 h [9]: > 100 µM | EC50 [3]: > 100 µM

COc1ccc(C(=O)N/N=C/c2ccc(O)cc2)cc1 [Compound 35, N′-(4-hydroxybenzylidene)-4-methoxybenzohydrazide]
IC50 [4, 10]: > 56 µM | CC50 at 48 h [8]: > 100 µM | CC50 at 48 h [9]: > 100 µM | EC50 [3]: > 100 µM

COc1ccc(C(=O)N/N=C/c2ccco2)cc1 [Compound 39, N′-(furan-2-ylmethylene)-4-methoxybenzohydrazide]
IC50 [4, 10]: > 56 µM | CC50 at 48 h [8]: > 100 µM | CC50 at 48 h [9]: > 100 µM | EC50 [3]: > 100 µM

O=Cc1ccc(O)c2ncccc12 [Compound 40, reference compound]
IC50 [4, 10]: > 56 µM | antibacterial efficacy in words [5, 11]: potent inhibitors of nearly all the bacteria (excluding P. aeruginosa) | EC50 [3]: 24 µM

O=C(N/N=C/c1cccc2ccccc12)c1ccccc1 [Compound 34, N′-(naphthalen-1-ylmethylene)benzohydrazide]
IC50 [4, 10]: > 56 µM | CC50 at 48 h [8]: > 100 µM | CC50 at 48 h [9]: > 100 µM | EC50 [3]: > 100 µM

O=C(N/N=C/c1ccc([N+](=O)[O-])o1)c1ccncc1 [Compound 19, N′-((5-nitrofuran-2-yl)methylene)isonicotinohydrazide]
SI (CC50/EC50) Intestine [1]: 38 | CC50 [1]: 90 µM | SI (CC50/EC50) Colon [2]: 26 | CC50 [2]: 61 µM | EC50 [3]: 73 µM

COc1ccc(C(=O)N/N=C/c2cccc3ccccc23)cc1 [Compound 33, 4-methoxy-N′-(naphthalen-1-ylmethylene)benzohydrazide]
IC50 [4, 10]: > 56 µM | CC50 at 48 h [8]: > 100 µM | CC50 at 48 h [9]: > 100 µM | EC50 [3]: > 100 µM
